“And” between values parts separate entries of the source, which are not always exact repeats. Identical values can stand only once.
Columns and labels:
[1] = system: HepG-2 liver cancer cell line; test: Anti-proliferative activity (MTT / SRB assay), HepG-2; format: cell-based, human; details: HepG-2; for IC50: Homo sapiens, HepG2, mean of three separate experiments
Experimental: (§1) The new quinoxaline derivatives of the five series: 6, 7, 8, 9, and 10 were evaluated for their potential anti-proliferative activity against two liver cancer cell lines (HepG-2 and HuH-7) obtained from the American Type Culture Collection.

HepG-2 cells [2] = test: Cell cycle analysis by flow cytometry; format: cell-based, human
Experimental: The most compound 6 c incorporating 4-Cl benzylidene side chain was further evaluated through cell cycle analysis in HepG-2 cell line. Such a test was carried out to detect the exact phase at which cell cycle arrest takes place.

[3] = system: HuH-7 liver cancer cell line; test: Anti-proliferative activity (MTT / SRB assay), HuH-7; format: cell-based, human; details: for IC50: Homo sapiens, mean of three separate experiments
Experimental: as §1

Bax = test: Apoptotic marker level (Bax) in HepG-2 cells; format: cell-based, human; details: control 24.37 pg/ml
Experimental: (§2) The method was performed in detail as previously explained ([Eliaa et al., 2020]).

HDAC1 = HDAC1 (Homo sapiens, UniProt Q13547); test: Histone deacetylase inhibition, homogeneous fluorescence release assay
HDAC6 = biological target: T1, HDAC6 (Homo sapiens, UniProt Q9UBN7); test: as above
T1 sequence (Q9UBN7 1-1215): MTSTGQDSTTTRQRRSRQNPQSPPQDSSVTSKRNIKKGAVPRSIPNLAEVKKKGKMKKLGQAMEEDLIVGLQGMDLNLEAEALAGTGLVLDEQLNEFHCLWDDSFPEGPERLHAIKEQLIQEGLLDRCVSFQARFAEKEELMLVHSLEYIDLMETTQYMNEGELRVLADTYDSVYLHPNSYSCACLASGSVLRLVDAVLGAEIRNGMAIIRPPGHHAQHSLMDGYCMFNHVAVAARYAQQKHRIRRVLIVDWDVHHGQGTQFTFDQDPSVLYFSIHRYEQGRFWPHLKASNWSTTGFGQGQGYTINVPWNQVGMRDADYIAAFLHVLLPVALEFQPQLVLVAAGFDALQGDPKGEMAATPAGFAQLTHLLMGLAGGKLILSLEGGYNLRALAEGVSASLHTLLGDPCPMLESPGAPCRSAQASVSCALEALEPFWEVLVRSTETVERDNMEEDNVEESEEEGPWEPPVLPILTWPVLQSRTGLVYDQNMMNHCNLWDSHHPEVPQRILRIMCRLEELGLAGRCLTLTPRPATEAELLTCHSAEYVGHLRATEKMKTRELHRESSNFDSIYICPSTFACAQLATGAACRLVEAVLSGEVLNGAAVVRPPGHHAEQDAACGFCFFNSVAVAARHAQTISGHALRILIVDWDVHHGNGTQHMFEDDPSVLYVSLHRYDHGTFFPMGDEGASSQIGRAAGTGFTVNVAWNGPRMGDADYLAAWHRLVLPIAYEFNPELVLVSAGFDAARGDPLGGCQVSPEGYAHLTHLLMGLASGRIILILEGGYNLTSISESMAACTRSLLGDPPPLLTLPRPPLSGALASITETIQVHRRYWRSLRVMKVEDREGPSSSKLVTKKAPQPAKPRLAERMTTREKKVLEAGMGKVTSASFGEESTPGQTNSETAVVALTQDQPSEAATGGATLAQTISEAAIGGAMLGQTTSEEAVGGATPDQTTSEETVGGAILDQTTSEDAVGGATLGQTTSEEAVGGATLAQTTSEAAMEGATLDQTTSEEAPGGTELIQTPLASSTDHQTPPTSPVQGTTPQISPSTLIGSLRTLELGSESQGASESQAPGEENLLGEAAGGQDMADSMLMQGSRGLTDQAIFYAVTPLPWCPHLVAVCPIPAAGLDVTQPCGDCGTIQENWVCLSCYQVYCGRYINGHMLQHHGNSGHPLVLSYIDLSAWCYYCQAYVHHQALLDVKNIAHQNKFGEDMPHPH

Bcl-2 = test: Anti-apoptotic marker level (Bcl-2) in HepG-2 cells; format: cell-based, human; details: control 5.048 pg/ml
Experimental: as §2

HepG-2 cells [4] = test: Annexin V-FITC apoptosis assay; format: cell-based, human; details: HepG-2, 1.53 µM
Experimental: It is well-known that cell death may be due to programmed apoptosis or uncontrolled necrosis. Annexin V-based flow cytometry assay as a helpful strategy to determine the exact cause of death was carried out. […] This confirms that the cytotoxic activity of compound 6 c is due to programmed apoptosis, and not to nonspecific necrosis.
The previous compound was analyzed by FACS as we previously described ([Al-Rashood et al., 2020]; [Eliaa et al., 2020]; [Eldehna et al., 2021]).

HDAC4 = HDAC4 (Homo sapiens, UniProt P56524); test: Histone deacetylase inhibition, homogeneous fluorescence release assay
[5] = system: HepG-2 and HuH-7 liver cancer cell lines; test: Anti-proliferative activity, statements covering both cell lines; format: cell-based, human; details: class by IC50 on HepG-2 and HuH-7
Experimental: as §1

HDAC1, sequence (Q13547 whole entry): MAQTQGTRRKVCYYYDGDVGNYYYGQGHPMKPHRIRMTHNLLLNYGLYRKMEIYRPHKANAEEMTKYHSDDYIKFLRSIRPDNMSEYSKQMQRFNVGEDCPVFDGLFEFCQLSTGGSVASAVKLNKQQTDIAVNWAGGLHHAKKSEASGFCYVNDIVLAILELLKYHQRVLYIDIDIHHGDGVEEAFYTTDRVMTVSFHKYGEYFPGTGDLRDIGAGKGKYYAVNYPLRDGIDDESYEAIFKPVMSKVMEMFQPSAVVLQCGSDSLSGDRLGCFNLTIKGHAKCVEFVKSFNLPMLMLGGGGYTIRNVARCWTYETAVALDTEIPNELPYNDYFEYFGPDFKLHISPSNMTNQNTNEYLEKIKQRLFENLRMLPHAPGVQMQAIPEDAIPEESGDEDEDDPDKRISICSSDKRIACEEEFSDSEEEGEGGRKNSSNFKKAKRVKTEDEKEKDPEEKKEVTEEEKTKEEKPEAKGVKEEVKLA
HDAC4, sequence (P56524 whole entry): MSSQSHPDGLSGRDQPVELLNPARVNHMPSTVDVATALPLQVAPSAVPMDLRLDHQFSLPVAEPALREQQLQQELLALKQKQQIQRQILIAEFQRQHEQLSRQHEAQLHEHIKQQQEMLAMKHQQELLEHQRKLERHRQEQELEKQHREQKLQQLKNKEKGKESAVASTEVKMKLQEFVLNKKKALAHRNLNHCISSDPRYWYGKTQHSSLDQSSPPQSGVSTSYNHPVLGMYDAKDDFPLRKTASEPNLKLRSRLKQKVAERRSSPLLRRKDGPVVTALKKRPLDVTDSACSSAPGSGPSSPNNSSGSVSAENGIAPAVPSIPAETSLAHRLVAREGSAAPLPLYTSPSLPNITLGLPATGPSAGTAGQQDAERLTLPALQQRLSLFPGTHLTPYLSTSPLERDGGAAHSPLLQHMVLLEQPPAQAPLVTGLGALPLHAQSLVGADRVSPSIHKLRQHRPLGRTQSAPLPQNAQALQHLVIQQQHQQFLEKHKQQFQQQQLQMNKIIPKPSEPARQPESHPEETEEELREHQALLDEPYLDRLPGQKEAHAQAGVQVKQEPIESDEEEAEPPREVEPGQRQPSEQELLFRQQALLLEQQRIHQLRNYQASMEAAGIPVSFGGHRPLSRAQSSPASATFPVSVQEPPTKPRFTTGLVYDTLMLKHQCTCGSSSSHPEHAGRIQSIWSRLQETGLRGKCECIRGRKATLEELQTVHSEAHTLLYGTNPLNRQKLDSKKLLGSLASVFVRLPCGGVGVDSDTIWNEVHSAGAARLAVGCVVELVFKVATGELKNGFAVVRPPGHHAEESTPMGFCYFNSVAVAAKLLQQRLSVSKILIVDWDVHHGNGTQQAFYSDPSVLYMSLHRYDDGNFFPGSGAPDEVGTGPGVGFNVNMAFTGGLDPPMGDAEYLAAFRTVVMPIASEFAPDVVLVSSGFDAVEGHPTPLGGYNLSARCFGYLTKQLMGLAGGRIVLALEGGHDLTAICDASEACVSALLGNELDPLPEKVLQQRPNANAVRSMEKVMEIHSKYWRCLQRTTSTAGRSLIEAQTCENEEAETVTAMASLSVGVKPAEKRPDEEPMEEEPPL

| SMILES | IC50 [1] [µM] | decline in the cell population at G0/G1 phase compared to control (HepG-2 cells [2]; HepG-2, 1.53 µM) [fold] | decline in the cell population at S phase compared to control (HepG-2 cells [2]; HepG-2, 1.53 µM) [fold] | increase in the population of cells at the G2/M phase compared to control (HepG-2 cells [2]; HepG-2, 1.53 µM) [fold] | %G2/M (HepG-2 cells [2]; HepG-2 cells treated at 1.53 µM, control 18.67%) [%] | %S (HepG-2 cells [2]; HepG-2 cells treated at 1.53 µM, control 35.93%) [%] | %G0-G1 (HepG-2 cells [2]; HepG-2 cells treated at 1.53 µM, control 45.40%) [%] | IC50 [3] [µM] | Bax (Bax) [pg/mL] | IC50 (HDAC1) [µM] | IC50 (HDAC6) [µM] | Bcl-2 (Bcl-2) | increase in apoptosis percentage compared to the control, early phase (HepG-2 cells [4]) [fold] | increase in apoptosis percentage compared to the control, late phase (HepG-2 cells [4]) [fold] | AnxV-FITC apoptotic cells percentage, late apoptosis (HepG-2 cells [4]; control 0.53%) [%] | AnxV-FITC apoptotic cells percentage, early apoptosis (HepG-2 cells [4]; control 0.62%) [%] | IC50 (HDAC4) [µM] | fold increase in activity versus corresponding member 9, HepG-2 ([1]; ratio of IC50 values) [fold] | fold increase in activity versus corresponding member 9, HuH-7 ([3]; ratio of IC50 values) [fold] | cytotoxic (anti-proliferative) activity class [5] |
| --- | --- | --- | --- | --- | --- | --- | --- | --- | --- | --- | --- | --- | --- | --- | --- | --- | --- | --- | --- | --- |
| Clc1ccc(C=NNc2nc3ccccc3nc2Cl)cc1 [Compound 6 c, 2-Chloro-3-(2-(4-chlorobenzylidene)hydrazinyl)quinoxaline] | 1.53 | 1.23 | 1.18 | 1.76 | 32.93 | 30.32 | 36.75 | 3.06 | 274.3 | 1.76 | 3.46 | 1.27 pg/mL and 1.278 pg/mL | 9.98 | 10.81 | 5.73 | 6.19 | 1.39 |  |  |  |
| COc1nc2ccccc2nc1N/N=C1/C(=O)Nc2ccccc21 [Compound 12] | 1.99 |  |  |  |  |  |  | 3.08 | 257.9 | 2.01 | 3.62 | 1.571 pg/mL |  |  |  |  | 1.72 | 5.81 | 5.33 | very strong (1–10 (very strong)) |

From article PMC8493129, “Design and Synthesis of New Quinoxaline Derivatives as Potential Histone Deacetylase Inhibitors Targeting Hepatocellular Carcinoma: In Silico, In Vitro, and SAR Studies” (Frontiers in Chemistry, 2021)
